Measurements taken from the supplement of paper PMC11368000.

Experiments:
Details in all cases: exposure time: 90 min
30145 [1] = donor line of iPSC-derived cardiomyocytes; assay: POD (EC05) for increase in Ca2+ transient decay-to-rise ratio (QT prolongation) vs vehicle; higher = less potent (higher point of departure)
Procedure: (§1)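 Human iPSC-derived cardiomyocytes from 16 donors were exposed for 90 min at 37 °C to each PFAS at 0.1, 1, 10 and 100 µM in 0.5% DMSO, 384-well plates. Kinetic Ca2+ flux (FLIPR) and Hoechst nuclei counts were normalised to vehicle wells and fitted with a hierarchical Bayesian Hill model to give donor-specific PODs: EC05 for beat-rate increase or decrease and for decay-to-rise ratio increase (QT proxy), EC95 for peak-frequency loss (asystole), EC10 for total cell number loss. 0.03 µM is the lower bound.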

1535 [2] = donor line of iPSC-derived cardiomyocytes; assay: as above
Procedure: as §1

1118 = donor line of iPSC-derived cardiomyocytes; assay: as above
Procedure: as §1

1392 [3] = donor line of iPSC-derived cardiomyocytes; assay: as above
Procedure: as §1

11235 = donor line of iPSC-derived cardiomyocytes; assay: as above
Procedure: as §1

30171 = donor line of iPSC-derived cardiomyocytes; assay: as above
Procedure: as §1

1083 = donor line of iPSC-derived cardiomyocytes; assay: as above
Procedure: as §1

1565 [4] = donor line of iPSC-derived cardiomyocytes; assay: as above
Procedure: as §1

1368 = donor line of iPSC-derived cardiomyocytes; assay: as above
Procedure: as §1

1434 [5] = donor line of iPSC-derived cardiomyocytes; assay: as above
Procedure: as §1

20084 = donor line of iPSC-derived cardiomyocytes; assay: as above
Procedure: as §1

20032 [6] = donor line of iPSC-derived cardiomyocytes; assay: as above
Procedure: as §1

1516 = donor line of iPSC-derived cardiomyocytes; assay: POD (EC95) for loss of peak frequency (asystole) vs vehicle; higher = less potent (higher point of departure)
In short: (§2)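 For each of 16 donors, iPSC-derived human cardiomyocytes were cultured 14 days in gelatin-coated 384-well plates and given a fluorescent Ca2+ dye for 2 h. Exposure lasted 90 min at 37 °C at 0.1, 1, 10 and 100 µM final, with 0.5% DMSO, and a FLIPR Tetra captured Ca2+ flux at 8 frames/s over 100 s both before and afterwards. Points of departure per donor were estimated by hierarchical Bayesian Hill fits to vehicle-normalised beat frequency, decay-to-rise ratio or peak frequency, using thresholds of 5% change, or 95% loss for peak frequency.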

30145 [7] = assay: as above
In short: as §2

1531 = donor line of iPSC-derived cardiomyocytes; assay: as above
In short: as §2

1535 [8] = assay: as above
In short: as §2

1392 [9] = assay: as above
In short: as §2

1565 [10] = assay: as above
In short: as §2

1434 [11] = assay: as above
In short: as §2

20032 [12] = assay: as above
In short: as §2

Compound	POD vs vehicle 30145 [1] [µM]	POD vs vehicle 1535 [2] [µM]	POD vs vehicle 1118 [µM]	POD vs vehicle 1392 [3] [µM]	POD vs vehicle 11235 [µM]	POD vs vehicle 30171 [µM]	POD vs vehicle 1083 [µM]	POD vs vehicle 1565 [4] [µM]	POD vs vehicle 1368 [µM]	POD vs vehicle 1434 [5] [µM]	POD vs vehicle 20084 [µM]	POD vs vehicle 20032 [6] [µM]	POD vs vehicle 1516 [µM]	POD vs vehicle 30145 [7] [µM]	POD vs vehicle 1531 [µM]	POD vs vehicle 1535 [8] [µM]	POD vs vehicle 1392 [9] [µM]	POD vs vehicle 1565 [10] [µM]	POD vs vehicle 1434 [11] [µM]	POD vs vehicle 20032 [12] [µM]
O=C(O)C(F)(F)C(F)(F)F [Perfluoropropanoic_acid]	> 100	> 100	> 100	> 100	> 100	> 100	> 100	> 100	> 100	> 100	> 100	> 100	> 100	> 100	> 100	> 100	> 100	> 100	> 100	> 100
NC(=O)C(F)(F)C(F)(F)C(F)(F)C(F)F	> 100	> 100	7.19	> 100	> 100	17	> 100	1.78	> 100	0.543	> 100	0.131	> 100	> 100	> 100	> 100	> 100	> 100	> 100	> 100
OCC(F)(F)C(F)(F)C(F)(F)CO [Hexafluoroamylene_glycol]	> 100	> 100	> 100	> 100	> 100	> 100	> 100	> 100	> 100	> 100	> 100	> 100	> 100	> 100	> 100	> 100	> 100	> 100	> 100	> 100
O=C(O)C=C(C(F)(F)F)C(F)(F)F [3,3-Bis(trifluoromethyl)-2-propenoic_acid]	> 100	> 100	> 100	> 100	> 100	> 100	> 100	> 100	> 100	> 100	> 100	> 100	> 100	> 100	> 100	> 100	> 100	> 100	> 100	> 100
O=C(O)C(F)(F)C(F)(F)C(F)(F)C(F)(F)C(F)(F)C(F)(F)C(F)(F)C(F)(F)F [Perfluorononanoic_acid]	> 100	> 100	> 100	> 100	> 100	> 100	> 100	> 100	> 100	> 100	> 100	> 100	> 100	> 100	> 100	> 100	> 100	> 100	> 100	> 100
O=C(O)C=CC(F)(C(F)(F)F)C(F)(F)F [3-(Perfluoroisopropyl)-2-propenoic_acid]	> 100	> 100	> 100	> 100	> 100	> 100	> 100	> 100	> 100	> 100	> 100	> 100	> 100	> 100	> 100	> 100	> 100	> 100	> 100	> 100
OCC(F)(F)C(F)(F)C(F)(F)C(F)(F)C(F)(F)C(F)F [Dodecafluoroheptanol]	> 100	> 100	> 100	> 100	> 100	> 100	> 100	> 100	> 100	> 100	> 100	0.504	48.2	47.9	42.6	46.3	45	50.6	45.8	47.7
OCC(F)(F)C(F)(F)C(F)(F)C(F)(F)C(F)(F)C(F)(F)F [6:1 Fluorotelomer alcohol]	> 100	> 100	> 100	> 100	> 100	> 100	> 100	> 100	> 100	> 100	> 100	> 100	> 100	> 100	> 100	> 100	> 100	> 100	75.4	> 100
O=S(=O)(O)CCC(F)(F)C(F)(F)C(F)(F)C(F)(F)C(F)(F)C(F)(F)F [6:2 Fluorotelomer sulfonic acid]	> 100	> 100	> 100	> 100	> 100	> 100	> 100	> 100	> 100	> 100	> 100	> 100	> 100	> 100	> 100	> 100	> 100	> 100	> 100	> 100
OCCC(F)(F)C(F)(F)C(F)(F)C(F)(F)C(F)(F)C(F)(F)F [6:2 Fluorotelomer alcohol]	> 100	> 100	> 100	> 100	> 100	> 100	> 100	> 100	> 100	> 100	> 100	> 100	> 100	> 100	> 100	> 100	> 100	> 100	> 100	> 100
O=S(=O)(O)C(F)(F)C(F)(F)C(F)(F)C(F)(F)C(F)(F)C(F)(F)F [Perfluorohexanesulfonic_acid]	> 100	> 100	> 100	> 100	> 100	21.2	> 100	> 100	> 100	> 100	> 100	> 100	> 100	> 100	> 100	> 100	> 100	> 100	> 100	> 100
O=C(O)C(F)(F)C(F)(F)C(F)(F)C(F)(F)C(F)(F)C(F)(F)C(F)(F)C(F)(F)Cl [9-Chloro-perfluorononanoic_acid]	> 100	> 100	> 100	> 100	> 100	> 100	> 100	> 100	> 100	> 100	> 100	> 100	90.9	> 100	> 100	> 100	> 100	> 100	87.4	> 100
O=C(O)C(F)(F)C(F)(F)C(F)(F)C(F)(F)C(F)(F)C(F)(F)C(F)(F)C(F)(F)C(F)(F)C(F)(F)F [Perfluoroundecanoic_acid]	> 100	> 100	> 100	> 100	> 100	4.57	> 100	> 100	> 100	> 100	> 100	> 100	> 100	> 100	> 100	> 100	> 100	> 100	> 100	> 100
O=C(O)C(F)(F)OC(F)(F)C(F)(F)OC(F)(F)C(F)(F)OC(F)(F)C(F)(F)C(F)(F)C(F)(F)F [Perfluoro-3,6,9-trioxatridecanoic_acid]	> 100	> 100	> 100	> 100	> 100	> 100	> 100	> 100	> 100	> 100	> 100	> 100	84.8	> 100	11.4	> 100	> 100	> 100	89.3	> 100
O=C(O)CCC(F)(F)C(F)(F)C(F)(F)F [3:3 Fluorotelomer carboxylic acid]	> 100	> 100	> 100	> 100	> 100	> 100	> 100	> 100	> 100	> 100	> 100	> 100	> 100	> 100	> 100	> 100	> 100	> 100	> 100	> 100
O=C([O-])C(F)(F)C(F)(F)C(F)(F)C(F)(F)C(F)(F)C(F)(F)C(F)(F)F.[NH4+] [Ammonium_perfluorooctanoate]	> 100	> 100	> 100	> 100	> 100	> 100	> 100	> 100	> 100	> 100	> 100	> 100	> 100	> 100	> 100	> 100	> 100	> 100	> 100	> 100
